Format in all cases: cell-based
One test concerns SR. Nature of the test: MTS anti-proliferation assay, SR. Conditions: human lymphoma cell line, 48 hours. The procedure:
(§1) MTS assay was performed to evaluate the anti-proliferative activities of the inventive compounds via inhibition on extracellular signal-regulated kinase (Barltrop, J. A. et al., (1991) 5-(3-carboxymethoxyphenyl)-2-(4,5-dimethylthiazoly)-3-(4-sulfophenyl) tetrazolium, inner salt (MTS) and related analog of 3-(4,5-dimethylthiazolyl)-2,5,-diphenyltetrazolium bromide (MTT) reducing to purple water soluble formazans as cell-viability indicators. Bioorg. Med Chem. Lett. 1, 611-4; Cory, A. H. et al., (1991) Use of an aqueous soluble tertrazolium/formazan assay for cell growth assays in culture. Cancer Comm. 3, 207-12).
(§2) Human lymphoma cell lines Jeko-1 (ATCC), Mino (ATCC), H9 (Korean Cell Line Bank) and SR (ATCC), and human leukemia cell lines MV4-11 (ATCC), Molm-13 (DSMZ) and Ku812 (ATCC) were used for the test according to the procedure shown below.
(§3) Each of Jeko-1, Mino, H9, SR, MV4-11, Molm-13 and Ku812 cells were transferred into 96-well plates containing RPMI1640 medium (GIBCO, Invitrogen) supplemented with 10% FBS at a density of 10,000 cells/well, and then incubated for 24 hours under conditions of 37° C. and 5% CO2. The wells were treated with each of 0.2, 1, 5, 25 and 100 μM, of the test compounds. The well was treated with DMSO in an amount of 0.08 wt %, which is the same amount as in the test compounds, which was used as a control. The resulting cells were incubated for 48 hours.
(§4) MTS assays are commercially available and include the Promega CellTiter 96® Aqueous Non-Radioactive Cell Proliferation Assay. MTS assays were performed in order to evaluate cell viability of the test compounds. 20 μL of a mixed solution of 3-(4,5-dimethylthiazol-2-yl)-5-(3-carboxymethoxyphenyl)-2-(4-sulfophenyl)-2H-tetrazolium, inner salt (“MTS”) and phenazine methosulfate (PMS) was added to each well, and then incubated for 2 hours at 37° C. Then absorbance of the samples was read at 490 nm. The anti-proliferation activity level was calculated based on absorbance of the test compounds against that of the untreated control group. The EC50 (μM) values, in which test compounds reduce the growth of cancer cells by 50% were calculated.
In general terms: Tetrazolium assays rely on reduction of a dye to a coloured formazan, in cell work by metabolically active cells.

Another test concerns RBL-2H3 cell line. Nature of the test: Histamine Release Assay. Conditions: Rattus norvegicus; RBL-2H3 cells, 500 ng/mL monoclonal anti-DNP, 24 hours. As to the method:
Histamine release assays were performed with reference to the method disclosed in the article, FEBS Lett. 2002 Sep. 11; 527 (1-3):274-8. Silencing of Bruton's tyrosine kinase (Btk) using short interfering RNA duplexes (siRNA). Heinonen J E, Smith C I, Nore B F, and the amount of histamine was measured by an enzyme immunoassay.
The RBL-2H3 cell line, purchased from KCLB (Korean Cell Line Bank), was grown in a DMEM medium supplemented with 10% (v/v) FBS at 37° C. in a 5% CO2 incubator for 72 hours. The cells were transferred into 96-well plates at a density of 10,000 cells/well, and cultured at 37° C. in the 5% CO2 incubator for 24 hours.
The cells were treated with 500 ng/mL of monoclonal anti-DNP (sigma) and each of 0.001, 0.01, 0.1, 1.0 and 10 μM of the test compound in 100% (v/v) dimethyl sulfoxide (DMSO). The cells were treated only with 100% (v/v) DMSO, which was used as a control. The treated samples were cultured at 37° C. in the 5% CO2 incubator for 24 hours. Then, histamine release was measured according to manufacturer's instructions (EIA histamine kit, immunotech). Each well was treated with 50 μL of a histamine release buffer, and allowed to react for 30 minutes at 37° C. Upon completion of the reaction, 100 μL of a sample from each well was transferred to a new plate, and then was thoroughly mixed with 25 μL of an acetylation buffer and 25 μL of an acetylation reagent. 50 μL of the acetylation sample thus prepared was transferred to a plate coated with an antibody, mixed with 200 μL of histamine alkaline phosphatase conjugate, and then allowed to react for 18 hours at 4° C. Once the reaction is completed, the sample from the plate is removed, and then 200 μL of a wash buffer was added to wash three times. 200 μL of a substrate was added thereto, and the mixture was allowed to react at room temperature for 30 minutes. The reaction was terminated by adding 50 μL of a stop solution, and absorbance of the samples was read at 406 nm using Benchmark Plus (Biorad). The histamine release level was calculated based on absorbance of the test group against that of the control group. The EC50 (μM) values, in which test compounds reduce the histamine release by 50%, were determined by using Microsoft Excel graphic program.

A further test concerns H9. Description: MTS anti-proliferation assay, H9. The settings on record: human lymphoma cell line, 48 hours. As to the method: as §1, §2, §3, §4
The next test concerns Jeko-1. Nature of the test: MTS anti-proliferation assay, Jeko-1. The settings on record: human lymphoma cell line, 48 hours. The procedure:
as §1, §2, §3, §4

The next test has as its system Mino. Nature of the test: MTS anti-proliferation assay, Mino. Conditions: human lymphoma cell line, 48 hours. As to the method: as §1
(§5) Human lymphoma cell lines Jeko-1 (ATCC), Mino (ATCC), H9 (Korean Cell Line Bank) and SR (ATCC), and human leukemia cell lines MV4-11 (ATCC), Molm-13 (DSMZ) and Ku812 (ATCC) were used for the test according to the procedure shown below. […]
(§6) MTS assays are commercially available and include the Promega CellTiter 96® Aqueous Non-Radioactive Cell Proliferation Assay. […] Then absorbance of the samples was read at 490 nm. The anti-proliferation activity level was calculated based on absorbance of the test compounds against that of the untreated control group. […]

The next test deals with Molm-13. Nature of the test: MTS anti-proliferation assay, Molm-13. The settings on record: human leukemia cell line, 48 hours. As to the method:
as §1, §5, §6

The test system of a further test is MV4-11. Description: MTS anti-proliferation assay, MV4-11. The settings on record: human leukemia cell line, 48 hours. As to the method: as §1, §5, §6
For another test, the system named is Ku812. Description: MTS anti-proliferation assay, Ku812. The settings on record: human leukemia cell line, 48 hours. As to the method:
as §1, §5, §6

pEC50: −log10 of the molar value.

This is an account of results in patent US10604508B2, “2,3-dihydro-isoindole-1-one derivative as BTK kinase suppressant, and pharmaceutical composition including same” (CrystalGenomics, Inc., priority 2012, dated 2020).

Broadly, the pEC50 is the negative decadic logarithm of the EC50, by convention in mol/L. Regarding `Cc1cnc(-c2ccc(-c3ccc(NC(=O)Nc4c(F)cccc4Cl)cc3F)c3c2C(=O)NC3)[nH]1` [Compound 4, 1-(2-chloro-6-fluoro-phenyl)-3-{3-fluoro-4-[7-(5-methyl-1H-imidazol-2-yl)-1-oxo-2,3-dihydro-1H-isoindol-4-yl]-phenyl}-urea], the negative logarithm of the EC50 (pEC50) with SR was 7.52; in the test on RBL-2H3 cell line, 6.60; with H9, 7.52; with Jeko-1 it was 7.00.

Regarding `Cc1cnc(-c2ccc(-c3ccc(NC(=O)Nc4c(F)c(F)c(F)c(F)c4F)cc3F)c3c2C(=O)NC3)[nH]1` [Compound 9, 1-{3-fluoro-4-[7-(5-methyl-1H-imidazol-2-yl)-1-oxo-2,3-dihydro-1H-isoindol-4-yl]-phenyl}-3-pentafluorophenyl-urea], the negative logarithm of the EC50 (pEC50) is 7.74 in the test with SR, 6.46 in the test on RBL-2H3 cell line, 8.22 in the test with H9 and 7.52 in the test on Jeko-1.

For the compound `Cc1cnc(-c2ccc(-c3ccc(NC(=O)Nc4c(F)c(F)cc(F)c4F)cc3F)c3c2C(=O)NC3)[nH]1` [Compound 20, 1-{3-fluoro-4-[7-(5-methyl-1H-imidazol-2-yl)-1-oxo-2,3-dihydro-1H-isoindol-4-yl]-phenyl}-3-(2,3,5,6-tetrafluoro-phenyl)-urea], the negative-log EC50 (pEC50) is 7.77 with SR, 6.52 in the test with RBL-2H3 cell line, 8.00 in the test with H9 and 7.52 in the test on Jeko-1.

In the case of `Cc1cnc(-c2ccc(-c3ccc(NC(=O)Nc4ccc(C#N)c(F)c4)cc3F)c3c2C(=O)NC3)[nH]1` [Compound 15, 1-(4-cyano-3-fluorophenyl)-3-(3-fluoro-4-(7-(5-methyl-1H-imidazol-2-yl)-1-oxoisoindolin-4-yl)phenyl)urea], the negative logarithm of the EC50 (pEC50) was 6.82 in the test on SR, 6.66 in the test with RBL-2H3 cell line, 6.72 in the test with H9 and 7.00 in the test on Jeko-1.

For the compound `Cc1cnc(-c2ccc(-c3ccc(NC(=O)Nc4ccc(F)c(F)c4)cc3F)c3c2C(=O)NC3)[nH]1` [Compound 14, 1-(3,4-difluoro-phenyl)-3-{3-fluoro-4-[7-(5-methyl-1H-imidazol-2-yl)-1-oxo-2,3-dihydro-1H-isoindol-4-yl]-phenyl}-urea], the pEC50 with SR was 7.74; in the test on RBL-2H3 cell line it was 6.70; in the test with H9, 7.70; in the test with Jeko-1, 7.52.

On to `Cc1cnc(-c2ccc(-c3ccc(NC(=O)Nc4c(F)cc(Cl)cc4F)cc3F)c3c2C(=O)NC3)[nH]1` [Compound 19, 1-(4-chloro-2,6-difluoro-phenyl)-3-{3-fluoro-4-[7-(5-methyl-1H-imidazol-2-yl)-1-oxo-2,3-dihydro-1H-isoindol-4-yl]-phenyl}-urea], for which the pEC50 in the test with SR is 7.70; with RBL-2H3 cell line, 6.52; in the test on H9, 7.40; with Jeko-1 it was 7.52.

As to `Cc1cnc(-c2ccc(-c3ccc(NC(=O)Nc4c(F)ccc(F)c4Cl)cc3F)c3c2C(=O)NC3)[nH]1` [Compound 18, 1-(2-chloro-3,6-difluorophenyl)-3-(3-fluoro-4-(7-(5-methyl-1H-imidazol-2-yl)-1-oxoisoindolin-4-yl)phenyl)urea], the pEC50 was 7.70 in the test on SR, 6.52 with RBL-2H3 cell line, 7.70 in the test on H9 and 7.52 in the test on Jeko-1.

As to `Cc1cnc(-c2ccc(-c3ccc(NC(=O)Nc4c(F)ccc(F)c4F)cc3F)c3c2C(=O)NC3)[nH]1` [Compound 12, 1-{3-fluoro-4-[7-(5-methyl-1H-imidazol-2-yl)-1-oxo-2,3-dihydro-1H-isoindol-4-yl]-phenyl}-3-(2,3,6-trifluoro-phenyl)-urea], the pEC50 in the test on SR is 7.70; in the test with RBL-2H3 cell line it was 6.52; in the test with H9 it was 7.40; with Jeko-1 it was 6.82.

Regarding `Cc1cnc(-c2ccc(-c3ccc(NC(=O)Nc4c(F)cccc4F)cc3F)c3c2C(=O)NC3)[nH]1` [Compound 3, 1-(2,6-difluoro-phenyl)-3-{3-fluoro-4-[7-(5-methyl-1H-imidazol-2-yl)-1-oxo-2,3-dihydro-1H-isoindol-4-yl]-phenyl}-urea], the pEC50 in the test with SR is 7.00; in the test with RBL-2H3 cell line, 6.35; in the test with H9 it was 7.52; with Jeko-1, 7.00.

As for `Cc1cnc(-c2ccc(-c3ccc(NC(=O)Nc4c(F)ccc(Cl)c4F)cc3F)c3c2C(=O)NC3)[nH]1` [Compound 17, 1-(3-chloro-2,6-difluorophenyl)-3-(3-fluoro-4-(7-(5-methyl-1H-imidazol-2-yl)-1-oxoisoindolin-4-yl)phenyl)urea], the pEC50 is 7.74 in the test with Mino; 7.60 in the test on SR; 7.92 in the test with Molm-13; 8.40 in the test on MV4-11; 7.40 in the test with RBL-2H3 cell line; 6.72 in the test on Ku812. Further, the pEC50 in the test on H9 is 7.70; with Jeko-1 it was 7.52.

For `Cc1cnc(-c2ccc(-c3ccc(NC(=O)Nc4c(F)cc(F)cc4F)cc3F)c3c2C(=O)NC3)[nH]1` [Compound 7, 1-{3-fluoro-4-[7-(5-methyl-1H-imidazol-2-yl)-1-oxo-2,3-dihydro-1H-isoindol-4-yl]-phenyl}-3-(2,4,6-trifluoro-phenyl)-urea], the negative-log EC50 (pEC50) in the test with Mino was 7.74; in the test on SR, 7.82; with Molm-13, 8.52; in the test with MV4-11, 8.70; in the test on RBL-2H3 cell line it was 6.66; in the test with Ku812, 6.22. The negative logarithm of the EC50 (pEC50) was 8.15 in the test on H9 and 7.52 in the test on Jeko-1.
